Assay results from US20210163937A1, “[…] GENOME-EDITED CELLS” (B.R.A.I.N. Biotechnology Research and Information Network AG, priority 2018, published 2021).

Columns and labels:
Type in all cases: cell-based, human
[1] = tested on: HaCaT wildtype keratinocytes; assay: Blasticidin tolerance, growth determined microscopically; conditions: 4 μg/ml blasticidin, HaCaT-WT cells
Experimental: (§1) In order to determine the tolerance against the antibiotic blasticidin, HaCaT wildtype keratinocytes (VVT; Boukamp, et al.1988, The Journal of Cell Biology, 106(3):761-771.) as well as HaCaT-LRRC8A^−/− knock-out (KO) cells were treated with different concentrations of blasticidin and growth was determined microscopically for several days (FIG. 2). […] As previously shown for KBM-7cells^10, the LRRC8D subunit is also required for blasticidin uptake in HaCaT cells (FIG. 2A).

[2] = tested on: HaCaT-LRRC8A−/− knock-out (KO) cells; assay: as above
Experimental: as §1

[3] = tested on: HaCaT knock-out cells devoid of LRRC8D; assay: Blasticidin tolerance of LRRC8D knock-out cells; conditions: LRRC8D gene knock-out
Text: FIG. 2: (A) Microscopic analysis of cytotoxic effect of blasticidin on HaCaT wildtype keratinocytes (VVT) (upper panel), HaCaT knock-out cells devoid of LRRC8A (LRRC8A^−/− KO) and HaCaT knock-out cells devoid of LRRC8D (LRRC8D^−/− KO). (B) Graphical display of survival rate of HaCaT wildtype vs. LRRC8A knock-out cells in presence of blasticidin.
as §1

[4] = tested on: non-pure LRRC8A−/− HaCaT cell clone; assay: Removal of wildtype cells from a mixed LRRC8A−/− cell pool, PCR of genomic DNA; conditions: single pulse 4 μg/ml blasticidin for 24 h, then blasticidin-free medium
Text: Creating single cell clones is one of the most challenging tasks in all fields of genome engineering. […] Therefore it was of interest to analyze whether the LRRC8A-mediated blasticidin resistance could be a very easy method to get rid of non-edited wildtype cells. To mimic this issue, a non-pure LRRC8A^−/− HaCaT cell clone, which contained the desired 300 bp LRRC8A genomic deletion as well as few undesired HaCaT wildtype cells, was chosen and either treated or not treated with a single blasticidin pulse (4 μg/ml blasticidin applied for 24 h) (FIG. 3A). Then cultivation medium was changed and cells were cultivated in absence of blasticidin. Genomic DNA was isolated and PCR was performed to visualize the genomic deletion of LRRC8A in knock-out cells and/or the non-deleted, intact LRRC8A gene of wildtype cells (FIG. 3B). […] Strikingly, treatment with blasticidin prevented this effect: No
This also proves that disruption of the LRRC8A-mediated blasticidin resistance can not only be used to create blasticidin-resistant cells but that it is also suited to get rid of unwanted wildtype cells during genome engineering.

[5] = tested on: HaCaT cells; assay: Co-editing of LRRC8D and EMX1 with blasticidin enrichment, Sanger sequencing and ICE analysis; conditions: transfected HaCaT cells treated with blasticidin
Experimental: The functionality of the above-described co-editing system was tested by using EMX1 (Empty Spiracles Homeobox 1) as gene-of-interest and LRRC8D as blasticidin resistance-mediating gene. EMX1 is a commonly used reference gene in CRISPR-based research^23. Instead of LRRC8A, another member of the LRRC8 gene family, LRRC8D, was used. First, the coding sequences of two sgRNAs targeting the LRRC8D and EMX1 gene were cloned into an expression plasmid containing the coding sequence for the Cas9 nuclease (FIGS. 4 and 5A). Then HaCaT cells were transfected with the expression plasmids and cells were either treated or not treated with blasticidin (FIG. 5A). After several days of cultivation, genomic DNA was extracted and used in PCR to amplify the genomic-region of the LRRC8D and EMX gene. The PCR products were analyzed by Sanger sequencing and subsequent ICE (Inference of CRISPR Edits)^24 analysis to determine the genetic modifications occurring in the treated and non-treated HaCaT cells (FIG. 5B). Strikingly, when the transfected HaCaT cell pool was not treated with blasticidin, no editing event could be detected; neither in the EMX1 nor in the LRRC8D gene.

[6] = tested on: HaCaT cells; assay: Co-editing of LRRC8A and EMX1 with blasticidin enrichment, ICE analysis; conditions: for EMX1 editing: after blasticidin
Experimental: (§2) To further increase the editing rate of the gene of interest, the two single sgRNA cassettes of the gene of interest and the LRRC8A or LRRC8D selection gene (FIG. 6A) can be transcriptionally coupled, for example by coupling the sgRNAs via ribozyme structures (FIG. 6B) or by other processing sites such as tRNAs (FIG. 6C). […] Then HaCaT cells were transfected with the corresponding expression plasmids and cells were treated and analyzed as described in Example 4.
The initial editing rates for EMX1 and LRRC8A were determined 48 h post-transfection and were very low (<5%) (FIG. 7A). Treatment with blasticidin led to drastic increase of LRRC8A editing (>95%), which was equally high independent of the sgRNA expression construct showing efficient enrichment of LRRC8A-KO cells using blasticidin (FIG. 7A). When sgRNA expression cassette of EMX1 was independent from that of LRRC8A, EMX1 editing was increased from 3 to 7%. Strikingly, by coupling the two sgRNA cassettes of EMX1 and LRRC8A via ribozymes, EMX1 editing could drastically be increased from 7% to >70% (FIG. 7A). This clearly proves that the above-described strategy to increase low editing events by transcriptional coupling is functioning.

[7] = tested on: HEK293 cells; assay: as above; conditions: HEK293, after blasticidin
Experimental: as §2
To confirm the suitability of the co-editing strategy of the present invention also for a different cell type, the same experimental setup was applied for HEK293 cells (FIG. 7B). Again, initial editing of the gene of interest EMX1 was also very low in HEK293 cells. By applying the co-editing strategy as presented above for HaCaT cells, it was also possible to increase the editing rates to approx. 60% for EMX1 and approx. 90% for LRRC8A in HEK293 cells (using uncoupled sgRNA expression constructs) (FIG. 7B).
Again, by transcriptional coupling it was possible to further increase editing rates for EMX1 from 62% to 74% (FIG. 7B).

[8] = tested on: HEK293 cells; assay: HR-dependent LRRC8A gene disruption, cell growth under blasticidin; conditions: HEK293, Cas9 + intronic LRRC8A sgRNA, treated 72 h after transfection
Experimental: Next, it was tested whether the above-described strategy (Example 6, FIG. 8) can indeed be employed to enrich HR-capable cells (or conversely to get rid of cells which have performed NHEJ). First, a HDR donor template was designed (FIG. 9A), which creates a modified, non-functional LRRC8A sequence after successful insertion via HR. The HDR donor template is composed of left and right HR flaks, which are complementary to intronic and exon-3 LRRC8A sequence, respectively. The exon-3 sequence used in the HDR donor template carries two modifications to create non-functional LRRC8A: (i) Mutation of the translational start site ATG to ATT and (ii) deletion of one nucleotide (Guanin) to create LRRC8A frameshift. To also test whether foreign or recombinant DNA sequences can be inserted into the LRRC8A locus as well, the restriction site for the Kpnl restriction enzyme was included into the HDR donor template. To prevent the repeated cutting of the Cas9 enzyme (which would prevent successful HDR donor template insertion), the spacer sequence of the sgRNA (which is used to induce the DSB at the intronic region of LRRC8A) was modified by mutating the PAM motif and the seed region. […]

Q: For `CN(CC[C@H](N)CC(=O)N[C@H]1C=C[C@H](n2ccc(N)nc2=O)O[C@@H]1C(=O)O)C(=N)N` [blasticidin], which “growth of cells in presence of blasticidin” value [1] is on record?
A: not able to grow anymore and died

Q: And the “survival of cells under blasticidin treatment” value [2]?
A: survived the treatment

Q: And the “blasticidin resistance of LRRC8D knock-out cells” value [3]?
A: resistant

Q: And the “PCR products of wildtype and knock-out cells after blasticidin treatment” value [4]?
A: only the PCR product of the pure knock-out cell clone was detectable

Q: What about the “editing percentage of the LRRC8D gene” value [5] of the same molecule?
A: 90%

Q: And the “editing percentage of the co-edited EMX1 gene” value [5]?
A: 6%

Q: What about the LRRC8A editing ([6]; after blasticidin treatment, independent of sgRNA expression construct) of the same molecule?
A: > 95%

Q: What about the EMX1 editing ([6]; EMX1 sgRNA cassette independent from LRRC8A) of the same molecule?
A: 7%

Q: And the EMX1 editing ([6]; sgRNA cassettes coupled via ribozymes HDV/HH)?
A: > 70%

Q: And the “editing rate for EMX1” value ([7]; transcriptional coupling)?
A: 74%

Q: And the “editing rate for LRRC8A” value ([7]; uncoupled sgRNA expression constructs)?
A: approx. 90%

Q: What about the “cell growth under blasticidin treatment” value ([8]; HDR donor template included) of the same molecule?
A: cell growth was observed

Q: What about the “cell growth under blasticidin treatment” value ([8]; HDR template omitted) of the same molecule?
A: no cell growth was observed
